Here are results for four compounds from ChEMBL document CHEMBL1201862, “PubChem BioAssay data set” (2004).

Among the test systems are SF-295; MDA-MB-231; HCT-15; MDA-N; OVCAR-4; NCI-H460; COLO 205; U-251; TK-10; BT-549; MCF7; NCI-H522; PC-3; HCT-116; SN12C; NCI-H23; HOP-62; UACC-62; IGROV-1; SNB-75.
Holding throughout (experiment): DTP human tumour cell line panel, 48 h

Each structure is given as a SMILES string.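 48-hour exposure; five concentrations; linearly interpolated endpoints. Here, GI50 denotes the concentration required for 50% inhibition of growth.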 Calls of active or inactive are those of the source. Cut-off read from the data, not from the text of the source: active = GI50 up to about 1.1 µM and inactive = higher.

Regarding `COC(=O)N/N=C(/CC1(O)C(=O)Nc2ccc([N+](=O)[O-])cc21)c1ccccc1` (stereo not given), the GI50 in the assay with SF-295 is 17.5 µM (inactive); in the assay on MDA-MB-231, 18.3 µM (inactive); in the assay on HCT-15 it was greater than 51.2 µM; with MDA-N, 39.4 µM (inactive); with OVCAR-4, 47.3 µM (inactive); with NCI-H460, 63.8 µM (inactive). Moreover, the GI50 in the assay with COLO 205 is 50.7 µM (inactive); with U-251 it was 29.9 µM (inactive); in the assay on TK-10, 24.9 µM (inactive); in the assay with BT-549, 38.5 µM (inactive); in the assay on MCF7, 1.19 µM (inactive); in the assay with NCI-H522 it was 43.9 µM (inactive). Moreover, the GI50 in the assay on PC-3 is 38.8 µM (inactive); in the assay on HCT-116, 24.1 µM (inactive); with SN12C it was > 74 µM (inactive); in the assay on NCI-H23 it was 21.3 µM (inactive); in the assay with HOP-62, 31 µM (inactive); with UACC-62, 24.7 µM (inactive). For the same compound, the values for the GI50 with IGROV-1 and with SNB-75 were > 46.7 µM (inactive) and 23.9 µM (inactive), respectively.
`COc1ccc2c3c1OC1C(F)C=CC4(O)C(C2)NCCC314` (stereo not given): the GI50 was 9.18 µM (inactive) in the assay on SF-295; 3.27 µM (inactive) in the assay on MDA-MB-231; 2.37 µM in the assay with HCT-15; 2.42 µM (inactive) with MDA-N; 1.95 µM (inactive) in the assay with OVCAR-4; 4.97 µM (inactive) in the assay with NCI-H460. Further, the GI50 in the assay with COLO 205 was 1.44 µM (inactive); with U-251 it was 2.2 µM (inactive); in the assay with TK-10, 3.51 µM (inactive); with BT-549 it was 1.93 µM (inactive); with MCF7 it was 1.69 µM (inactive); in the assay on NCI-H522, 0.407 µM (active). The GI50 was 2.07 µM (inactive) in the assay with PC-3; 1.24 µM (inactive) in the assay on HCT-116; 1.98 µM (inactive) with SN12C; 1.92 µM (inactive) in the assay with NCI-H23; 2.11 µM (inactive) with HOP-62; 3.37 µM (inactive) with UACC-62. Also, the GI50 in the assay with IGROV-1 was 4.81 µM (inactive); in the assay on SNB-75 it was 2.06 µM (inactive).
Consider `COC(=O)c1cc2c(cc1CC(Cc1ccc3c(c1)CCC3)C(=O)OC)CCC2` (stereo not given), for which the GI50 with SF-295 is 84.5 µM (inactive); in the assay on MDA-MB-231, 70.6 µM (inactive); in the assay with HCT-15, 39.2 µM; in the assay with MDA-N it was 38 µM (inactive); in the assay on OVCAR-4 it was 24 µM (inactive); in the assay with NCI-H460, 65.5 µM (inactive). The GI50 in the assay with COLO 205 was 29.5 µM (inactive); in the assay on U-251 it was 50.9 µM (inactive); in the assay with TK-10 it was 88.5 µM (inactive); with BT-549, > 100 µM (inactive); with MCF7, 24.8 µM (inactive); in the assay with NCI-H522 it was 22.2 µM (inactive). For the same compound, the GI50 was 16.6 µM (inactive) in the assay with PC-3; 40.7 µM (inactive) in the assay with HCT-116; > 100 µM (inactive) in the assay with SN12C; 63.5 µM (inactive) in the assay with NCI-H23; > 100 µM (inactive) with HOP-62; > 100 µM (inactive) with UACC-62. Moreover, the GI50 in the assay on IGROV-1 is > 100 µM (inactive); in the assay on SNB-75, 22.9 µM (inactive).
For `O=C(O)c1cnc2c(ccc3ncc(C(=O)O)c(O)c32)c1O`, the GI50 with SF-295 was > 100 µM (inactive); in the assay with MDA-MB-231, > 100 µM (inactive); in the assay on HCT-15, greater than 100 µM; with MDA-N, > 100 µM (inactive); in the assay with OVCAR-4, > 100 µM (inactive); with NCI-H460, > 100 µM (inactive). Further, the GI50 with COLO 205, in the assay with U-251, in the assay with TK-10, in the assay with BT-549, in the assay on MCF7 and in the assay on NCI-H522 was > 100 µM (inactive) throughout. The GI50 in the assay with PC-3, in the assay with HCT-116, in the assay with SN12C, in the assay with NCI-H23, with HOP-62 and in the assay on UACC-62 was > 100 µM (inactive) in each case. Moreover, the GI50 in the assay with IGROV-1 was > 100 µM (inactive); with SNB-75, 34.8 µM (inactive).
